From ChEMBL document CHEMBL1123336, “Selective monoamine oxidase inhibitors. 3. Cyclic compounds related to 4-aminophenethylamine. Preparation and neuron-selective action of some 5-(2-aminoethyl)-2,3-dihydroindoles” (J Med Chem, 1986)
pIC50: −log10 of the molar value. “And” between values parts separate entries of the source, which are not always exact repeats. Equal values may be shown once.

Experiments:
Rattus norvegicus [1] = assay: Compound (po) was tested in vivo for inhibition of MAO activity remaining inside (N) DA synaptosomes of rat striatum; type: functional
[2] = Ratio of the inhibition of MAO using [14C]-PEA and [14C]5-HT in rat brain; type: tissue-based
Rattus norvegicus [3] = organism: Rattus norvegicus; assay: The lowest dose that release NE causing reversal of ptosis in rat; type: functional
Rattus norvegicus [4] = assay: Compound (po) was tested in vivo for inhibition of MAO activity remaining inside (N) NE synaptosomes of rat hypothalamus; type: functional
[5] = target: Sodium-dependent serotonin transporter (Rattus norvegicus, UniProt P31652); assay: Compound was tested in vitro for inhibition of Serotonin transporter uptake at serotonin uptake site
Monoamine oxidase [6] = target: T1, Monoamine oxidase (Rattus norvegicus, UniProt P19643+P21396); assay: Compound was tested in vitro for inhibition of MAO by using [14C]phenylethylamine as substrate in rat brain mitochondrial preparation; type: tissue-based
T1 sequence (P19643 whole entry): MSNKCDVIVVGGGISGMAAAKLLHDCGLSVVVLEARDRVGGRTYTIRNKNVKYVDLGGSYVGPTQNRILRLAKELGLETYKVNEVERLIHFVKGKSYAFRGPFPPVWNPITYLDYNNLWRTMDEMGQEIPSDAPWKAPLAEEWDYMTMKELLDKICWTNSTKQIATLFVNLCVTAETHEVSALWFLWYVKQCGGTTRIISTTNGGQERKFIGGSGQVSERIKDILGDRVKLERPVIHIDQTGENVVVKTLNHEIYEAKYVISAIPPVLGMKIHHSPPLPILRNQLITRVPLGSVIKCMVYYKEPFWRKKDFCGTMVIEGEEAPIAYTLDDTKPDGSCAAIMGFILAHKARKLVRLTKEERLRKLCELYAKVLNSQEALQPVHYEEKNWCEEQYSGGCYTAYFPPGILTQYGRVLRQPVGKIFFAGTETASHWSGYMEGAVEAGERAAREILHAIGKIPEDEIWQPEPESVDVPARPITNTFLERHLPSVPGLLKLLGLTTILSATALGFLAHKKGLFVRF
T1 sequence (P21396 whole entry): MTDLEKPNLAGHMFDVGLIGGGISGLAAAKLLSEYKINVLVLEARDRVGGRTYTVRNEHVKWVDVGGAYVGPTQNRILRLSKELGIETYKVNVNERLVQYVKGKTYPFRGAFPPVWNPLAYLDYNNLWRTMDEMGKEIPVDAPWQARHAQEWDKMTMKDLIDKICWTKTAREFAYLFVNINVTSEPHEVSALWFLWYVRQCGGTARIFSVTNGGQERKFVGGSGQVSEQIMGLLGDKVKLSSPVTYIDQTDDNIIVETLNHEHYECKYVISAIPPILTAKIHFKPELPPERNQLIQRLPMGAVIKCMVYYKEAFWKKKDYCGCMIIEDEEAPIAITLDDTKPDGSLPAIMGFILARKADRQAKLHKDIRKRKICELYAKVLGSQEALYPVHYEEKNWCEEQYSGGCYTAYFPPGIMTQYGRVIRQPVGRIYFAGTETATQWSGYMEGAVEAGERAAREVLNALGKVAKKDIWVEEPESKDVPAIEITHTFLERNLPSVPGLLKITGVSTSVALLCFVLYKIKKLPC

Monoamine oxidase [7] = target: T1, Monoamine oxidase; assay: Compound was tested in vitro for inhibition of MAO by using [14C]5-HT as substrate in rat brain mitochondrial preparation; type: tissue-based
Rattus norvegicus [8] = organism: Rattus norvegicus; assay: The lowest dose that release DA causing increased motor activity in rat; type: functional
Rattus norvegicus [9] = assay: Compound (po) was tested in vivo for inhibition of MAO activity remaining inside (N) 5-HT synaptosomes of rat hypothalamus.; type: functional
Rattus norvegicus [10] = organism: Rattus norvegicus; assay: The lowest dose that release 5-HT causing a serotonin syndrome in rat; type: functional
Rattus norvegicus [11] = assay: (§1) Compound (po) was tested in vivo for inhibition of MAO activity remaining outside (EN) DA synaptosomes of rat striatum; type: functional
[12] = target: Sodium-dependent dopamine transporter (Rattus norvegicus, UniProt P23977); assay: In […] inhibition of DA uptake at dopamine uptake site; type: functional
[13] = target: Norepinephrine transporter (Rattus norvegicus, UniProt Q9WTR4); assay: In vitro inhibition of NE uptake at NE uptake site; type: functional
Monoamine oxidase [14] = target: T1, Monoamine oxidase; assay: Compound was tested in vitro for inhibition of Monoamino oxidase by using [14C]phenylethylamine as substrate in rat brain mitochondrial preparation; type: tissue-based
Rattus norvegicus [15] = assay: Compound (po) was tested in vivo for inhibition of Monoamino oxidase activity remaining inside (N) 5-HT synaptosomes of rat hypothalamus.; type: functional
Monoamine oxidase [16] = target: T1, Monoamine oxidase; assay: Compound was tested in vitro for inhibition of Monoamino oxidase by using [14C]5-HT as substrate in rat brain mitochondrial preparation; type: tissue-based
[17] = Ratio of inhibition of MAO activity remaining outside (EN) and inside (N) synaptosomes; type: subcellular; settings: Brain
[18] = as §1; type: functional
Rattus norvegicus [19] = assay: Compound (po) was tested in vivo for inhibition of MAO activity remaining outside (EN) 5-HT synaptosomes of rat hypothalamus.; type: functional

Sequence of Sodium-dependent dopamine transporter (P23977 whole entry): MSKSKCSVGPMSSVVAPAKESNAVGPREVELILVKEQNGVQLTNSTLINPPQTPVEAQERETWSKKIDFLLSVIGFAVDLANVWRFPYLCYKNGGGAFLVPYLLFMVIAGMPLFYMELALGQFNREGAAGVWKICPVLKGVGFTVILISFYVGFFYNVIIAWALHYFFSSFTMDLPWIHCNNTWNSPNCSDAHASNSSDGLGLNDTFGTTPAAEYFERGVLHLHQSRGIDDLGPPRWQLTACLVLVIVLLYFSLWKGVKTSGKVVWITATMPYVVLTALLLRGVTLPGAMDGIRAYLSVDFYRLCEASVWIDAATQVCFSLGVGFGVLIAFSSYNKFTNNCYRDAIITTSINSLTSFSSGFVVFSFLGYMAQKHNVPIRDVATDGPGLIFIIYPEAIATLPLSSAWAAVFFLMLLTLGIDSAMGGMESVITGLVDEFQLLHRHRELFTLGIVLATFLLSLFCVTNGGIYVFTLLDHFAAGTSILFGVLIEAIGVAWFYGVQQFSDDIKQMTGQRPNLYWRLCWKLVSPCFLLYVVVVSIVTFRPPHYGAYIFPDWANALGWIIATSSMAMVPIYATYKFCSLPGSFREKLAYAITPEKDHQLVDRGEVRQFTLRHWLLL
Sequence of Norepinephrine transporter (Q9WTR4 whole entry): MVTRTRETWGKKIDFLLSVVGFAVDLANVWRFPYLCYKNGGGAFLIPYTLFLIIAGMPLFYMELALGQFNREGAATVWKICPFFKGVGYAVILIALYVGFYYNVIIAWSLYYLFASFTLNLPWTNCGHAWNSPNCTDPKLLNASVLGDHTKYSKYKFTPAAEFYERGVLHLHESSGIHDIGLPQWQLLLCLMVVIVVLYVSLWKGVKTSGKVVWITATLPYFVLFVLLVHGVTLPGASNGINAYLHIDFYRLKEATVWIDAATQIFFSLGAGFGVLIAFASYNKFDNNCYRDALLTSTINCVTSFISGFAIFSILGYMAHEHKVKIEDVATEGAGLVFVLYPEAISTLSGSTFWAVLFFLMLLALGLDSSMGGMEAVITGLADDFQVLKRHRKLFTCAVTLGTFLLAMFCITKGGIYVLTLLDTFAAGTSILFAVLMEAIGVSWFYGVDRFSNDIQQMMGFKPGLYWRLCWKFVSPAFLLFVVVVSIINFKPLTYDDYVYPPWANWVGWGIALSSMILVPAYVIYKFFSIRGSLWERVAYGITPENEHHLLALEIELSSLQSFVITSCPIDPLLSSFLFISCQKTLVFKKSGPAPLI
Sequence of Sodium-dependent serotonin transporter (P31652 whole entry): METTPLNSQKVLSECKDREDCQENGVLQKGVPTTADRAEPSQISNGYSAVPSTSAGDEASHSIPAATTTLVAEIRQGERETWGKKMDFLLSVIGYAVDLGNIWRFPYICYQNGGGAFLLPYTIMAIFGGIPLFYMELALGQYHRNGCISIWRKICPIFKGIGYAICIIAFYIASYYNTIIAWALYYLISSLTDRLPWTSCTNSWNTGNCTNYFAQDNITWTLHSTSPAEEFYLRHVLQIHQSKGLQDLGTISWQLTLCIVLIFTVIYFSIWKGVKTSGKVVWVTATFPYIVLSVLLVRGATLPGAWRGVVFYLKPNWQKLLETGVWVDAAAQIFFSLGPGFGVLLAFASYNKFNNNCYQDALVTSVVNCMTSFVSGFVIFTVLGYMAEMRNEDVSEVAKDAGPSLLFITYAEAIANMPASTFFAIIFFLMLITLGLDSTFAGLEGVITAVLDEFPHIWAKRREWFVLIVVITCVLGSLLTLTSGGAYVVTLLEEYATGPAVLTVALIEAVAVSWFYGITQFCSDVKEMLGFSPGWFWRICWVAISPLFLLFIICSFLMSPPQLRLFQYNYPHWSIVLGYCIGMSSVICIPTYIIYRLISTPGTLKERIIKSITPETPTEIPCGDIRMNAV

Cc1cc(N(C)C)ccc1CC(C)N (configuration not stated)
ED50 (Rattus norvegicus [1]): 3.3 µmol/kg | Ratio [2]: > 1250 | ED50 (Rattus norvegicus [3]): 15 µmol/kg | ED50 (Rattus norvegicus [4]): 2 µmol/kg | pIC50 [5]: 7.00 | IC50 (Monoamine oxidase [6]): > 1000 µM | IC50 (Monoamine oxidase [7]): 0.8 µM | ED50 (Rattus norvegicus [8]): > 300 µmol/kg | ED50 (Rattus norvegicus [9]): 1.1 µmol/kg | ED50 (Rattus norvegicus [10]): 7.5 µmol/kg | ED50 (Rattus norvegicus [11]): 4.4 µmol/kg | pIC50 [12]: < 5.00 | pIC50 [13]: 6.19

CC(N)Cc1ccc2c(c1Cl)CCN2 (configuration not stated)
ED50 (Rattus norvegicus [1]): 2.2 µmol/kg | Ratio [2]: 4000 | ED50 (Rattus norvegicus [3]): 59 µmol/kg | ED50 (Rattus norvegicus [4]): 1.6 µmol/kg | pIC50 [5]: 6.47 | IC50 (Monoamine oxidase [6]): 800 µM | IC50 (Monoamine oxidase [7]): 0.2 µM | ED50 (Rattus norvegicus [8]): > 59 µmol/kg | ED50 (Rattus norvegicus [9]): 1.5 µmol/kg | ED50 (Rattus norvegicus [10]): 59 µmol/kg | ED50 (Rattus norvegicus [11]): 4.1 µmol/kg | pIC50 [12]: < 5.00 | pIC50 [13]: 6.49

CCC(N)Cc1ccc2c(c1)CCN2 (configuration not stated)
ED50 (Rattus norvegicus [1]): 26 µmol/kg | Ratio [2]: 57 | ED50 (Rattus norvegicus [3]): 128 µmol/kg | ED50 (Rattus norvegicus [4]): 32 µmol/kg | pIC50 [5]: 5.44 | IC50 (Monoamine oxidase [14]): 800 µM | ED50 (Rattus norvegicus [8]): > 256 µmol/kg | ED50 (Rattus norvegicus [10]): 64 µmol/kg | ED50 (Rattus norvegicus [11]): 74 µmol/kg | pIC50 [12]: 5.00 | ED50 (Rattus norvegicus [15]): 11 µmol/kg | pIC50 [13]: 6.30 | IC50 (Monoamine oxidase [16]): 14 µM

CC(N)Cc1ccc2c(c1)CCN2 (configuration not stated)
ED50 (Rattus norvegicus [1]): 0.8 µmol/kg | Ratio [2]: > 20 | ED50 (Rattus norvegicus [3]): 17 µmol/kg | ED50 (Rattus norvegicus [4]): 1.1 µmol/kg | pIC50 [5]: 5.74 | IC50 (Monoamine oxidase [6]): > 100 µM | IC50 (Monoamine oxidase [7]): 5 µM | ED50 (Rattus norvegicus [8]): 42 µmol/kg | ED50 (Rattus norvegicus [9]): 1.8 µmol/kg | ED50 (Rattus norvegicus [10]): 42 µmol/kg | ED50 (Rattus norvegicus [11]): 20 µmol/kg | pIC50 [12]: 5.42 | Ratio [17]: > 15 and > 31 and 25 | pIC50 [13]: 6.44

Cc1c(CC(C)N)ccc2c1CCN2 (configuration not stated)
ED50 (Rattus norvegicus [1]): 4.6 µmol/kg | Ratio [2]: > 625 | ED50 (Rattus norvegicus [3]): 128 µmol/kg | ED50 (Rattus norvegicus [4]): 1.1 µmol/kg | pIC50 [5]: 6.42 | IC50 (Monoamine oxidase [6]): > 500 µM | IC50 (Monoamine oxidase [7]): 0.8 µM | ED50 (Rattus norvegicus [8]): > 128 µmol/kg | ED50 (Rattus norvegicus [9]): 0.8 µmol/kg | ED50 (Rattus norvegicus [10]): 64 µmol/kg | ED50 (Rattus norvegicus [11]): 13 µmol/kg | pIC50 [12]: 5.05 | pIC50 [13]: 6.12

Cc1cc2c(cc1CC(C)N)CCN2 (configuration not stated)
ED50 (Rattus norvegicus [1]): > 61 µmol/kg | Ratio [2]: 13 | ED50 (Rattus norvegicus [3]): > 61 µmol/kg | ED50 (Rattus norvegicus [4]): 49 µmol/kg | pIC50 [5]: < 4.80 | IC50 (Monoamine oxidase [6]): 170 µM | IC50 (Monoamine oxidase [7]): 13 µM | ED50 (Rattus norvegicus [8]): > 61 µmol/kg | ED50 (Rattus norvegicus [9]): > 61 µmol/kg | ED50 (Rattus norvegicus [10]): > 61 µmol/kg | ED50 (Rattus norvegicus [11]): > 61 µmol/kg | pIC50 [12]: 5.22 | Ratio [17]: > 1 | pIC50 [13]: 5.22

CCN1CCc2cc(CC(C)N)c(C)cc21 (configuration not stated)
ED50 (Rattus norvegicus [1]): 12 µmol/kg | Ratio [2]: 233 | ED50 (Rattus norvegicus [3]): 87 µmol/kg | ED50 (Rattus norvegicus [4]): 17 µmol/kg | pIC50 [5]: 5.66 | IC50 (Monoamine oxidase [6]): 77 µM | IC50 (Monoamine oxidase [7]): 0.33 µM | ED50 (Rattus norvegicus [8]): > 87 µmol/kg | ED50 (Rattus norvegicus [9]): > 27 µmol/kg | ED50 (Rattus norvegicus [10]): > 87 µmol/kg | ED50 [18]: 17 µmol/kg | pIC50 [12]: < 5.00 | Ratio [17]: > 3 and 1.4 | ED50 (Rattus norvegicus [19]): > 27 µmol/kg | pIC50 [13]: 5.60

CCN1CCc2c1ccc(CC(C)N)c2C (configuration not stated)
ED50 (Rattus norvegicus [1]): 10 µmol/kg | Ratio [2]: > 455 | ED50 (Rattus norvegicus [3]): > 87 µmol/kg | ED50 (Rattus norvegicus [4]): 9 µmol/kg | pIC50 [5]: 5.82 | IC50 (Monoamine oxidase [6]): > 500 µM | IC50 (Monoamine oxidase [7]): 1.1 µM | ED50 (Rattus norvegicus [8]): > 87 µmol/kg | ED50 (Rattus norvegicus [9]): 13 µmol/kg | ED50 (Rattus norvegicus [10]): 87 µmol/kg | ED50 (Rattus norvegicus [11]): 16 µmol/kg | pIC50 [12]: < 5.00 | pIC50 [13]: 5.12

CC(C)(N)Cc1ccc2c(c1)CCN2
ED50 (Rattus norvegicus [1]): 8 µmol/kg | Ratio [2]: 929 | ED50 (Rattus norvegicus [3]): 64 µmol/kg | ED50 (Rattus norvegicus [4]): 12 µmol/kg | pIC50 [5]: 5.72 | IC50 (Monoamine oxidase [6]): 2600 µM | IC50 (Monoamine oxidase [7]): 2.8 µM | ED50 (Rattus norvegicus [8]): > 256 µmol/kg | ED50 (Rattus norvegicus [9]): 4.4 µmol/kg | ED50 (Rattus norvegicus [10]): 128 µmol/kg | ED50 (Rattus norvegicus [11]): 36 µmol/kg | pIC50 [12]: < 5.00 | pIC50 [13]: 5.57

CCC(N)Cc1ccc2c(c1Cl)CCN2 (configuration not stated)
ED50 (Rattus norvegicus [1]): 12 µmol/kg | ED50 (Rattus norvegicus [3]): > 112 µmol/kg | ED50 (Rattus norvegicus [4]): 11 µmol/kg | pIC50 [5]: 6.52 | ED50 (Rattus norvegicus [8]): > 112 µmol/kg | ED50 (Rattus norvegicus [9]): 9.1 µmol/kg | ED50 (Rattus norvegicus [10]): 28 µmol/kg | ED50 (Rattus norvegicus [11]): 28 µmol/kg | pIC50 [12]: < 5.00 | Ratio [17]: 2 (2×) and 2.3 | pIC50 [13]: 5.80
